In ChEMBL document CHEMBL3860023, “Structural optimization of pyridine-type DAPY derivatives to exploit the tolerant regions of the NNRTI binding pocket” (Eur J Med Chem, 2016):

Tests used:
[1] = Cytotoxicity against mock-infected human MT4 cells assessed as reduction in cell viability after 5 days by MTT assay; assay type: toxicity, cell-based
[2] = Selectivity index, ratio of CC50 for mock-infected human MT4 cells to EC50 for HIV1 3B expressing wild type reverse transcriptase; assay type: toxicity, cell-based; settings: read-out: Ratio CC50/EC50
[3] = Solubility of the compound; assay type: physicochemical
[4] = tested on: Human immunodeficiency virus 1; experiment: Antiviral activity against HIV1 RES056 expressing reverse transcriptase K103N/Y181C double mutant infected in human MT4 cells assessed as protection against virus-induced cytopathic effect after 5 days by MTT assay; assay type: functional, cell-based; settings: Human immunodeficiency virus 1, RES056, MT4, 120 h
[5] = tested on: Human immunodeficiency virus 1; experiment: Antiviral activity against HIV1 3B expressing wild type reverse transcriptase infected in human MT4 cells assessed as protection against virus-induced cytopathic effect after 5 days by MTT assay; assay type: functional, cell-based; settings: Human immunodeficiency virus 1, 3B, MT4, 120 h
[6] = molecular target: Human immunodeficiency virus type 1 reverse transcriptase (Human immunodeficiency virus 1, UniProt Q72547); experiment: Inhibition of recombinant wild type HIV1 p66/p51 using poly(rA) template/oligo(dT)16 primer after 40 mins by PicoGreen-based spectrofluorometric method
[7] = Selectivity index, ratio of CC50 for mock-infected human MT4 cells to EC50 for HIV1 RES056 expressing reverse transcriptase K103N/Y181C double mutant; assay type: toxicity, cell-based; settings: read-out: Ratio CC50/EC50

With Cc1cc(C#N)cc(C)c1Oc1cc(Cl)nc(Nc2ccc(C#N)cc2)c1 the CC50 at 120 h [1] was 57700 nM, the selectivity ratio [2] was 54 and the solubility [3] was over 3 µM. For the same compound, the EC50 [4] was over 57700 nM, the EC50 [5] was 1070 nM and the IC50 [6] was 773 nM. It also gave a selectivity ratio [7] of under 1.

With Cc1cc(C)c(Oc2cc(Cl)nc(Nc3ccc(C#N)cc3)c2)c(C)c1 the CC50 at 120 h [1] was 10800 nM, the selectivity ratio [2] was 26 and the solubility [3] was over 14 µM. For the same compound, the EC50 [4] was over 10800 nM, the EC50 [5] was 410 nM and the IC50 [6] was 248 nM. For the same compound, the selectivity ratio [7] was under 1.

For COc1cc(Oc2c(C)cc(C#N)cc2C)cc(NC2CCN(Cc3ccccc3)CC2)n1, the CC50 at 120 h [1] was 3500 nM, the selectivity ratio [2] was 37 and the solubility [3] was over 56 µM. The EC50 [4] was over 3500 nM, the EC50 [5] was 100 nM and the IC50 [6] was 264 nM. The selectivity ratio [7] was under 1.

In the case of Cc1cc(C)c(Oc2cc(Cl)nc(NC3CCN(Cc4ccncc4)CC3)c2)c(C)c1, the CC50 at 120 h [1] is reported as 10400 nM, the selectivity ratio [2] is reported as 247 and the solubility [3] is reported as over 57 µM. It also gave an EC50 [4] of at least 10500 nM, an EC50 [5] of 42 nM and an IC50 [6] of 82 nM. The selectivity ratio [7] was at most 1.

Compound COc1cc(Oc2c(C)cc(C#N)cc2C)cc(NC2CCN(Cc3ccc(S(N)(=O)=O)cc3)CC2)n1 has a CC50 at 120 h [1] of 10000 nM, a selectivity ratio [2] of 1280 and a solubility [3] of over 48 µM. The EC50 [4] was 6800 nM, the EC50 [5] was 7.8 nM and the IC50 [6] was 132 nM. It also gave a selectivity ratio [7] of 1.

COc1cc(Oc2c(C)cc(C#N)cc2C)cc(NC2CCN(Cc3ccc(S(C)(=O)=O)cc3)CC2)n1 gave a CC50 at 120 h [1] of 1700 nM, a selectivity ratio [2] of 133 and a solubility [3] of over 48 µM. The EC50 [4] was over 1700 nM, the EC50 [5] was 12 nM and the IC50 [6] was 175 nM. The selectivity ratio [7] was under 1.

Work on Cc1cc(C#N)cc(C)c1Oc1cc(Cl)nc(NC2CCN(CC3CC3)CC2)c1 yielded a CC50 at 120 h [1] of 9600 nM, a selectivity ratio [2] of at most 2 and a solubility [3] of over 304 µM. The EC50 [5] was at least 6400 nM.

Cc1cc(C)c(Oc2cc(Cl)nc(NC3CCN(CC4CC4)CC3)c2)c(C)c1 gave a CC50 at 120 h [1] of 5200 nM, a selectivity ratio [2] of under 1 and a solubility [3] of over 62 µM. For the same compound, the EC50 [5] was over 5200 nM.

With Cc1cc(C)c(Oc2cc(Cl)nc(NC3CCN(Cc4ccc(S(C)(=O)=O)cc4)CC3)c2)c(C)c1 the CC50 at 120 h [1] was 1200 nM, the selectivity ratio [2] was 46 and the solubility [3] was over 49 µM. It also gave an EC50 [4] of over 1100 nM, an EC50 [5] of 25 nM and an IC50 [6] of 160 nM. The selectivity ratio [7] was under 1.

Cc1cc(C#N)cc(C)c1Oc1cc(Cl)nc(NC2CCN(CC3CCC3)CC2)c1 gave a CC50 at 120 h [1] of 4200 nM, a selectivity ratio [2] of under 1 and a solubility [3] of over 59 µM. It also gave an EC50 [4] of over 4200 nM, an EC50 [5] of over 4200 nM and a selectivity ratio [7] of under 1.

COc1cc(Oc2c(C)cc(C#N)cc2C)cc(NC2CCN(CC3CC3)CC2)n1 gave a CC50 at 120 h [1] of 8600 nM, a selectivity ratio [2] of at most 1 and a solubility [3] of over 307 µM. It also gave an EC50 [5] of at least 9200 nM.

Compound Cc1cc(C)c(Oc2cc(Cl)nc(NC3CCN(Cc4ccc(S(N)(=O)=O)cc4)CC3)c2)c(C)c1 has a CC50 at 120 h [1] of 5400 nM, a selectivity ratio [2] of 161 and a solubility [3] of over 49 µM. The EC50 [4] was at least 9400 nM, the EC50 [5] was 33 nM and the IC50 [6] was 159 nM. The selectivity ratio [7] was at most 1.

In the case of COc1cc(Oc2c(C)cc(C#N)cc2C)cc(NC2CCN(Cc3ccncc3)CC2)n1, the CC50 at 120 h [1] is reported as 20800 nM, the selectivity ratio [2] is reported as 1570 and the solubility [3] is reported as over 11 µM. It also gave an EC50 [4] of 6200 nM, an EC50 [5] of 13 nM and an IC50 [6] of 81 nM. It also gave a selectivity ratio [7] of 3.

With Cc1cc(C#N)cc(C)c1Oc1cc(Cl)nc(NC2CCN(Cc3ccncc3)CC2)c1 the CC50 at 120 h [1] was 9700 nM, the selectivity ratio [2] was 1070 and the solubility [3] was over 56 µM. For the same compound, the EC50 [4] was at least 6500 nM, the EC50 [5] was 9.1 nM and the IC50 [6] was 40 nM. For the same compound, the selectivity ratio [7] was at most 1.

For Cc1cc(C#N)cc(C)c1Oc1cc(Cl)nc(NC2CCN(Cc3ccccc3)CC2)c1, the CC50 at 120 h [1] was 4300 nM, the selectivity ratio [2] was 88 and the solubility [3] was over 56 µM. The EC50 [4] was over 4300 nM, the EC50 [5] was 49 nM and the IC50 [6] was 168 nM. The selectivity ratio [7] was under 1.

Compound Cc1cc(C)c(Oc2cc(Cl)nc(NC3CCN(Cc4ccc(C(N)=O)cc4)CC3)c2)c(C)c1 has a CC50 at 120 h [1] of 8200 nM, a selectivity ratio [2] of 230 and a solubility [3] of over 52 µM. It also gave an EC50 [4] of over 8200 nM, an EC50 [5] of 35 nM and an IC50 [6] of 98 nM. It also gave a selectivity ratio [7] of under 1.

Work on Cc1cc(C#N)cc(C)c1Oc1cc(Cl)nc(NC2CCN(Cc3ccc(S(C)(=O)=O)cc3)CC2)c1 yielded a CC50 at 120 h [1] of 1500 nM, a selectivity ratio [2] of 168 and a solubility [3] of over 48 µM. It also gave an EC50 [4] of over 1500 nM, an EC50 [5] of 9.1 nM and an IC50 [6] of 80 nM. For the same compound, the selectivity ratio [7] was under 1.

In the case of Cc1cc(C)c(Oc2cc(Cl)nc(NC3CCN(Cc4ccccc4)CC3)c2)c(C)c1, the CC50 at 120 h [1] is reported as 9700 nM, the selectivity ratio [2] is reported as 63 and the solubility [3] is reported as over 287 µM. It also gave an EC50 [4] of over 9700 nM, an EC50 [5] of 150 nM and an IC50 [6] of 287 nM. For the same compound, the selectivity ratio [7] was under 1.

With Cc1cc(C)c(Oc2cc(Nc3ccc(C#N)cc3)nc(OCCCN3CCOCC3)c2)c(C)c1 the CC50 at 120 h [1] was 18800 nM, the selectivity ratio [2] was 18 and the solubility [3] was over 11 µM. For the same compound, the EC50 [4] was over 18800 nM, the EC50 [5] was 1100 nM and the IC50 [6] was 4060 nM. The selectivity ratio [7] was under 1.

COc1cc(Oc2c(C)cc(C#N)cc2C)cc(NC2CCN(Cc3ccc(C(N)=O)cc3)CC2)n1 gave a CC50 at 120 h [1] of 22900 nM, a selectivity ratio [2] of 1140 and a solubility [3] of over 257 µM. For the same compound, the EC50 [4] was at least 6600 nM, the EC50 [5] was 20 nM and the IC50 [6] was 113 nM. For the same compound, the selectivity ratio [7] was at most 3.

Work on Cc1cc(C#N)cc(C)c1Oc1cc(Cl)nc(NC2CCN(Cc3ccc(C(N)=O)cc3)CC2)c1 yielded a CC50 at 120 h [1] of 9800 nM, a selectivity ratio [2] of 1010 and a solubility [3] of over 51 µM. It also gave an EC50 [4] of at least 9700 nM, an EC50 [5] of 10 nM and an IC50 [6] of 90 nM. It also gave a selectivity ratio [7] of at most 1.

Cc1cc(C)c(Oc2cc(Cl)nc(Nc3ccc(CN4CCOCC4)cc3)c2)c(C)c1 gave a CC50 at 120 h [1] of 26000 nM, a selectivity ratio [2] of 11 and a solubility [3] of over 57 µM. It also gave an EC50 [4] of over 26000 nM, an EC50 [5] of 2400 nM and an IC50 [6] of 2620 nM. The selectivity ratio [7] was under 1.

Cc1cc(C#N)cc(C)c1Oc1cc(Cl)nc(Nc2ccc(CN3CCOCC3)cc2)c1 gave a CC50 at 120 h [1] of 7000 nM, a selectivity ratio [2] of 7 and a solubility [3] of over 56 µM. The EC50 [4] was over 6900 nM, the EC50 [5] was 930 nM and the IC50 [6] was 1320 nM. For the same compound, the selectivity ratio [7] was under 1.

With Cc1cc(C)c(Oc2cc(Cl)nc(NC3CCN(CC4CCC4)CC3)c2)c(C)c1 the CC50 at 120 h [1] was 4600 nM, the selectivity ratio [2] was under 1 and the solubility [3] was over 60 µM. The EC50 [5] was over 4600 nM.

With Cc1cc(C#N)cc(C)c1Oc1cc(Cl)nc(NC2CCN(Cc3ccc(S(N)(=O)=O)cc3)CC2)c1 the CC50 at 120 h [1] was 7000 nM, the selectivity ratio [2] was 946 and the solubility [3] was over 48 µM. The EC50 [4] was over 7000 nM, the EC50 [5] was 7.4 nM and the IC50 [6] was 57 nM. For the same compound, the selectivity ratio [7] was under 1.

CC(C)Nc1cccnc1N1CCN(C(=O)c2cc3cc(NS(C)(=O)=O)ccc3[nH]2)CC1 [DELAVIRDINE] gave a CC50 at 120 h [1] of over 36200 nM, a selectivity ratio [2] of over 59 and an EC50 [4] of over 36200 nM.

For O=C1Nc2ccc(Cl)cc2[C@@](C#CC2CC2)(C(F)(F)F)O1 [EFAVIRENZ], the CC50 at 120 h [1] was over 6300 nM, the EC50 [4] was 240 nM and the EC50 [5] was 6.8 nM.

Compound Cc1cc(C#N)cc(C)c1Oc1nc(Nc2ccc(C#N)cc2)nc(N)c1Br [ETRAVIRINE] has a CC50 at 120 h [1] of over 4600 nM, a solubility [3] of under 1 µM and an EC50 [5] of 9.5 nM.

For Nc1ccn([C@@H]2CS[C@H](CO)O2)c(=O)n1 [LAMIVUDINE], the CC50 at 120 h [1] was over 87200 nM, the selectivity ratio [2] was over 28 and the EC50 [5] was 3100 nM.

For Cc1ccnc2c1NC(=O)c1cccnc1N2C1CC1 [NEVIRAPINE], the CC50 at 120 h [1] was over 15000 nM and the EC50 [4] was at least 9800 nM.

In the case of Cc1cn([C@H]2C[C@H](N=[N+]=[N-])[C@@H](CO)O2)c(=O)[nH]c1=O [ZIDOVUDINE], the CC50 at 120 h [1] is reported as over 93500 nM, the selectivity ratio [2] is reported as over 13400 and the selectivity ratio [7] is reported as over 15000.
